Test results reported in ChEMBL document CHEMBL1201862, “PubChem BioAssay data set” (2004).
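Test compounds were applied to cells in 96-well plates for 48 hours at 5 doses. GI50: concentration for 50% inhibition of growth.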 Calls of active or inactive are those of the source. Rule as the data show it: active = GI50 up to about 1.1 µM and inactive = higher.

Tests used:
Assay in all cases: DTP human tumour cell line panel, 48 h
ACHN = tested on: ACHN
SK-MEL-5 = tested on: SK-MEL-5
SR = tested on: SR
MDA-N = tested on: MDA-N
RPMI-8226 = tested on: RPMI-8226
HCT-116 = tested on: HCT-116
OVCAR-5 = tested on: OVCAR-5
SNB-75 = tested on: SNB-75
786-0 = tested on: 786-0
EKVX = tested on: EKVX
SN12C = tested on: SN12C
COLO 205 = tested on: COLO 205
SW-620 = tested on: SW-620
HCT-15 = tested on: HCT-15
PC-3 = tested on: PC-3
Hs-578T = tested on: Hs-578T
DU-145 = tested on: DU-145
HT-29 = tested on: HT-29
SK-MEL-28 = tested on: SK-MEL-28

SMILES	GI50 (ACHN)	GI50 (SK-MEL-5)	GI50 (SR)	GI50 (MDA-N)	GI50 (RPMI-8226)	GI50 (HCT-116)	GI50 (OVCAR-5)	GI50 (SNB-75)	GI50 (786-0)	GI50 (EKVX)	GI50 (SN12C)	GI50 (COLO 205)	GI50 (SW-620)	GI50 (HCT-15) [µM]	GI50 (PC-3)	GI50 (Hs-578T)	GI50 (DU-145)	GI50 (HT-29)	GI50 (SK-MEL-28)
O=C1O[C@H](COC(=O)c2ccccc2)[C@@H](OC(=O)c2ccccc2)C=C1OC(=O)c1ccccc1	16 µM (inactive)	19 µM (inactive)	18.5 µM (inactive)	31.7 µM (inactive)	29.6 µM (inactive)	17.3 µM (inactive)	21 µM (inactive)	25.8 µM (inactive)	18.2 µM (inactive)	17.7 µM (inactive)	18.8 µM (inactive)	19.6 µM (inactive)	19 µM (inactive)	17.7	25.4 µM (inactive)	33 µM (inactive)	36.6 µM (inactive)	–	–
Cc1cn(C2CC(N=[N+]=[N-])C(C(=O)O)O2)c(=O)[nH]c1=O (configuration not stated)	> 100 µM (inactive)	< 0.01 µM (active)	> 100 µM (inactive)	> 100 µM (inactive)	> 100 µM (inactive)	> 100 µM (inactive)	> 100 µM (inactive)	> 100 µM (inactive)	> 100 µM (inactive)	> 100 µM (inactive)	> 100 µM (inactive)	> 100 µM (inactive)	> 100 µM (inactive)	> 100	> 100 µM (inactive)	> 100 µM (inactive)	> 100 µM (inactive)	> 100 µM (inactive)	–
O=C1c2ccccc2-c2[nH]c3cn[nH]c(=O)c3c21	85.9 µM (inactive)	> 100 µM (inactive)	45 µM (inactive)	61.4 µM (inactive)	92.9 µM (inactive)	38.6 µM (inactive)	> 100 µM (inactive)	42.6 µM (inactive)	> 100 µM (inactive)	79.4 µM (inactive)	> 100 µM (inactive)	89.5 µM (inactive)	> 100 µM (inactive)	82.6	> 100 µM (inactive)	64.9 µM (inactive)	> 100 µM (inactive)	> 100 µM (inactive)	–
NC(=O)c1nnc2c(F)cccc2c1N	> 100 µM (inactive)	> 100 µM (inactive)	> 100 µM (inactive)	66.5 µM (inactive)	> 100 µM (inactive)	64.4 µM (inactive)	> 100 µM (inactive)	> 100 µM (inactive)	> 100 µM (inactive)	> 100 µM (inactive)	> 100 µM (inactive)	73.3 µM (inactive)	27.4 µM (inactive)	92	> 100 µM (inactive)	> 100 µM (inactive)	> 100 µM (inactive)	> 100 µM (inactive)	–
CC1C(C#N)(C#N)C(C#N)=C(N)C1(C)[N+](=O)[O-] (configuration not stated)	87.5 µM (inactive)	> 100 µM (inactive)	31.2 µM (inactive)	64.6 µM (inactive)	28.7 µM (inactive)	58.3 µM (inactive)	> 100 µM (inactive)	89.5 µM (inactive)	56 µM (inactive)	21.5 µM (inactive)	58.2 µM (inactive)	44.6 µM (inactive)	51.1 µM (inactive)	33.7	66.4 µM (inactive)	64.9 µM (inactive)	> 100 µM (inactive)	26.2 µM (inactive)	–
CC(=O)C12C[C@](C#N)(N3CCCCCC3)C1C=Cc1ccccc12 (some centres not stated)	> 100 µM (inactive)	> 100 µM (inactive)	> 100 µM (inactive)	> 100 µM (inactive)	> 100 µM (inactive)	> 100 µM (inactive)	–	> 100 µM (inactive)	> 100 µM (inactive)	> 100 µM (inactive)	> 100 µM (inactive)	> 100 µM (inactive)	> 100 µM (inactive)	> 100	> 100 µM (inactive)	> 100 µM (inactive)	> 100 µM (inactive)	> 100 µM (inactive)	> 100 µM (inactive)
